Measurements as given in patent US9422332B2, “Azaheterocycles as BIR2 and/or BIR3 inhibitors” (Hoffmann-La Roche Inc., priority 2012, dated 2016).

Legend:
BIR2 domain of XIAP = BIR2 domain of XIAP (Homo sapiens (Human), UniProt P98170, C202A/C213G); test: TR-FRET assay for BIR2 (inhibition of binding of XIAP BIR2 domain to Peptide A); conditions: 6x His-tagged BIR2 domain (aa 124-240 of XIAP), 20 nM Peptide A
Experimental: (§1) TR-FRET Assay for BIR2 and BIR3
(§2) The peptides were labeled with the fluorescent tags FITC or TAMRA and Kd values were determined by fluorescence polarization assay. […] The peptide sequence was derivatized with biotin to provide […]-(ε-biotin)-OH 1:2 TFA as the substrate for the TR-FRET assay.
The XIAP protein sequence was obtained from the SWISS-PROT protein sequence database and the BIR2 and BIR3 domains were derived from that. The sequence of the BIR2 domain used for the TR-FRET assay is
(§3) Time-resolved fluorescence resonance energy transfer (TR-FRET) signals were measured 1 hour later at room temperature. Test compound potency was assessed at 10 serially diluted concentrations. Percentage of inhibition at each concentration was determined to generate an IC50 value for each test compound.

BIR3 domain of XIAP = BIR3 domain of XIAP (Homo sapiens (Human), UniProt P98170); test: TR-FRET assay for BIR3 (inhibition of binding of XIAP BIR3 domain to Peptide A); conditions: 6x His-tagged BIR3 domain (aa 241-356 of XIAP), 20 nM Peptide A
Experimental: as §1, §2
The sequence of the BIR3 domain used for the TR-FRET assay is
as §3

BIR3 domain of XIAP, sequence (P98170 other isoform, or with tags, fused parts or gaps): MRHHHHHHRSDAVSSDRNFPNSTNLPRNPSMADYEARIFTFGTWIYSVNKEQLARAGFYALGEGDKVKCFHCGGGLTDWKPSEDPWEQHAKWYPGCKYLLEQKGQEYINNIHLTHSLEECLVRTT
BIR2 domain of XIAP, sequence (P98170 other isoform, or with tags, fused parts or gaps, stated change not applied): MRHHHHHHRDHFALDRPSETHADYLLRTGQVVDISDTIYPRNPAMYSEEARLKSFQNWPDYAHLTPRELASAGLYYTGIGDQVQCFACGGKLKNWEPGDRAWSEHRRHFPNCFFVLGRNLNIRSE

IC50 (BIR2 domain of XIAP) [µM]	IC50 (BIR3 domain of XIAP) [µM]	Compound
0.027	> 54.8	CN[C@@H](C)C(=O)N[C@H](C(=O)N1CCc2ccc(F)cc2[C@H]1C(=O)Nc1c(F)cccc1F)C(C)C [Example 42, N-(2,6-difluorophenyl)-7-fluoro-2-((S)-3-methyl-2-((S)-2-(methylamino)propanamido)butanoyl)-1,2,3,4-tetrahydroisoquinoline-1-carboxamide]
2.35	> 54.8	CN[C@@H](C)C(=O)N[C@H](C(=O)N1CCc2ccc(F)cc2[C@@H]1C(=O)Nc1c(F)cccc1F)C(C)C [Example 41, N-(2,6-difluorophenyl)-7-fluoro-2-((S)-3-methyl-2-((S)-2-(methylamino)propanamido)butanoyl)-1,2,3,4-tetrahydroisoquinoline-1-carboxamide]
0.047	> 54.8	CN[C@@H](C)C(=O)N[C@H](C(=O)N1CCc2ccc(Cl)cc2[C@H]1C(=O)Nc1c(F)cccc1F)C(C)C [Example 45, 7-chloro-N-(2,6-difluorophenyl)-2-((S)-3-methyl-2-((S)-2-(methylamino)propanamido)butanoyl)-1,2,3,4-tetrahydroisoquinoline-1-carboxamide]
4.71	> 54.8	CN[C@@H](C)C(=O)N[C@H](C(=O)N1CCc2ccc(Cl)cc2[C@@H]1C(=O)Nc1c(F)cccc1F)C(C)C [Example 44, 7-chloro-N-(2,6-difluorophenyl)-2-((S)-3-methyl-2-((S)-2-(methylamino)propanamido)butanoyl)-1,2,3,4-tetrahydroisoquinoline-1-carboxamide]
